# Measured values taken from patent US20250333407A1, “Compounds and Their Use for Treatment of Hemoglobinopathies” (Bristol-Myers Squibb Company, priority 2024, published 2025).
# How the values were obtained:
# Type in all cases: cell-based
# [1] = target: T1, ZBTB7A (Homo sapiens, UniProt O95365+Q96SW2); assay: HUDEP-2 ZBTB7A HiBiT degradation assay; settings: HiBiT-tagged ZBTB7A degradation in HUDEP-2 cells, 24 hours of treatment; read-out: ZBTB7A EC50
# T1 construct: HUDEP-2 cells engineered to express a HiBiT tag in either the WIZ (Widely interspaced zinc finger) or ZBTB7A
# T1 sequence (O95365 whole entry): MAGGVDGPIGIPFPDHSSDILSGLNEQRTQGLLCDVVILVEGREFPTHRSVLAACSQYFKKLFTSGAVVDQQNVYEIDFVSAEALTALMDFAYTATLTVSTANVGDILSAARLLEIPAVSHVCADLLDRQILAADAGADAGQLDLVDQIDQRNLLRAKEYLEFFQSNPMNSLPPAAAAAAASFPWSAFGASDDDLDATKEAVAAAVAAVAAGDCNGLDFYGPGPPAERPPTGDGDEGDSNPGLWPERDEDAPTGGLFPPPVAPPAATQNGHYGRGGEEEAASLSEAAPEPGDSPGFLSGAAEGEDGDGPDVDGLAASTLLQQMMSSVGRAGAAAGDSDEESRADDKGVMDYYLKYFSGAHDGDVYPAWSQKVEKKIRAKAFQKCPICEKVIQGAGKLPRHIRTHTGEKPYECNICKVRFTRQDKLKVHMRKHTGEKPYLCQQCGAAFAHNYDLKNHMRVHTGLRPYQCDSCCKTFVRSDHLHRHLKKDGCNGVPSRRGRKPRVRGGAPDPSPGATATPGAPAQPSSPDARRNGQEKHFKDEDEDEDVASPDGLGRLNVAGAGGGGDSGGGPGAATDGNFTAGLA
# T1 sequence (Q96SW2 whole entry): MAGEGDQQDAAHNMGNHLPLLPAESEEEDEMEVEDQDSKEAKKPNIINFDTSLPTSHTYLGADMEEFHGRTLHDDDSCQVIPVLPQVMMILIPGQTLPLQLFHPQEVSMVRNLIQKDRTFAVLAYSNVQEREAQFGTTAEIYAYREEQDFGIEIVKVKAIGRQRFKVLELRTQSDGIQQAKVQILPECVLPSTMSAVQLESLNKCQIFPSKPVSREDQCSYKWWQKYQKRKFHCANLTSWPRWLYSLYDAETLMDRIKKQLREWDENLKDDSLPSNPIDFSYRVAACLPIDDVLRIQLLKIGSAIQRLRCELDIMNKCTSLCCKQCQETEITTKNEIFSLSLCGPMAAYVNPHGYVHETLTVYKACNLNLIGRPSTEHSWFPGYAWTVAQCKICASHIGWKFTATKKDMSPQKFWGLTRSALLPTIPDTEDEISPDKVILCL
# T1 sequence (Q16531 whole entry partner): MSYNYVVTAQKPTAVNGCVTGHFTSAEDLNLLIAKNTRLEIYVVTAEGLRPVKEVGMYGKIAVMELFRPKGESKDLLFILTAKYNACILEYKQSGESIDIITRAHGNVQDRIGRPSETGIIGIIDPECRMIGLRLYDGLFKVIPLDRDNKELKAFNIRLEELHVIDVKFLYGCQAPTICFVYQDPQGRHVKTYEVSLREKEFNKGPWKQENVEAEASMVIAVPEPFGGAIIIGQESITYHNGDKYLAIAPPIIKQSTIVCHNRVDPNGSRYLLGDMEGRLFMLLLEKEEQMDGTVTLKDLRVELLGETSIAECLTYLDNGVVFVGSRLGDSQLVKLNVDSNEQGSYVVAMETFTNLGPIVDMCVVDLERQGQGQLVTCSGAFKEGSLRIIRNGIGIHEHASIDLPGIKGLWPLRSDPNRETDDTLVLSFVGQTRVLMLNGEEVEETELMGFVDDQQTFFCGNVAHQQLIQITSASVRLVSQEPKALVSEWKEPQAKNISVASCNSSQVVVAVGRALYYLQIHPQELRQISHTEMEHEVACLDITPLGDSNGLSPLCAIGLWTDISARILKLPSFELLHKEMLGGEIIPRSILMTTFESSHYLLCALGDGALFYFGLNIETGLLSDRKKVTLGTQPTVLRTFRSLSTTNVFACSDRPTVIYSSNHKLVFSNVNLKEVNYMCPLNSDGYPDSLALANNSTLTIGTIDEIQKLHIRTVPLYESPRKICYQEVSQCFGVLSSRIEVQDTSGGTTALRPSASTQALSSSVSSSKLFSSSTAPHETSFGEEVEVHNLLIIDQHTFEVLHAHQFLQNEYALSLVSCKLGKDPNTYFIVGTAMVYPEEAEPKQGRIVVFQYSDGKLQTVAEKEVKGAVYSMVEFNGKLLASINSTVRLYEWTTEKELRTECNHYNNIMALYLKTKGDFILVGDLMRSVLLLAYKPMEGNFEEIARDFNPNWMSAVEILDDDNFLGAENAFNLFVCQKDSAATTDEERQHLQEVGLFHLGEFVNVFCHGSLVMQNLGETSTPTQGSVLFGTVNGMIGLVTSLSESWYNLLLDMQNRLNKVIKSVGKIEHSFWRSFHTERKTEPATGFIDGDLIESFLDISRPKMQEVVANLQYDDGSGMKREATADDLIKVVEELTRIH
# Outline: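 HiBiT-tagged HUDEP-2 cells were pre-cultured 48 h in IMDM with EPO, SCF, doxycycline and 5% human plasma, then exposed to compounds at 1.0×10^6 cells/ml for 24 h at 37 °C. Nano-Glo HiBiT lytic luminescence, normalised to DMSO over 10 concentrations, gave EC50 and Y-min.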
# [2] = system: HbF; assay: HbF HiBiT induction assay in HUDEP-2 cells; settings: HUDEP-2 cells with HiBiT tag in HBG1/2, 72 hours of treatment; area under the dose response curve, higher AUC = greater HbF induction
# Outline: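 HUDEP-2 cells carrying a HiBiT tag on HBG1/2 were exposed to compounds for 72 h at 37° C, 5% CO2, in IMDM with EPO, hSCF, DOX, transferrin, insulin, heparin and 5% human plasma. HiBiT luminescence was read after lytic detection; HbF induction is expressed as dose-response AUC, alongside EC50 and Ymax.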
# [3] = target: T2, WIZ (Homo sapiens, UniProt O95785+Q96SW2); assay: HUDEP-2 WIZ HiBiT degradation assay; settings: HiBiT-tagged WIZ degradation in HUDEP-2 cells, 24 hours of treatment; read-out: WIZ EC50
# T2 construct: HUDEP-2 cells engineered to express a HiBiT tag in either the WIZ (Widely interspaced zinc finger) or ZBTB7A
# T2 sequence (O95785 whole entry): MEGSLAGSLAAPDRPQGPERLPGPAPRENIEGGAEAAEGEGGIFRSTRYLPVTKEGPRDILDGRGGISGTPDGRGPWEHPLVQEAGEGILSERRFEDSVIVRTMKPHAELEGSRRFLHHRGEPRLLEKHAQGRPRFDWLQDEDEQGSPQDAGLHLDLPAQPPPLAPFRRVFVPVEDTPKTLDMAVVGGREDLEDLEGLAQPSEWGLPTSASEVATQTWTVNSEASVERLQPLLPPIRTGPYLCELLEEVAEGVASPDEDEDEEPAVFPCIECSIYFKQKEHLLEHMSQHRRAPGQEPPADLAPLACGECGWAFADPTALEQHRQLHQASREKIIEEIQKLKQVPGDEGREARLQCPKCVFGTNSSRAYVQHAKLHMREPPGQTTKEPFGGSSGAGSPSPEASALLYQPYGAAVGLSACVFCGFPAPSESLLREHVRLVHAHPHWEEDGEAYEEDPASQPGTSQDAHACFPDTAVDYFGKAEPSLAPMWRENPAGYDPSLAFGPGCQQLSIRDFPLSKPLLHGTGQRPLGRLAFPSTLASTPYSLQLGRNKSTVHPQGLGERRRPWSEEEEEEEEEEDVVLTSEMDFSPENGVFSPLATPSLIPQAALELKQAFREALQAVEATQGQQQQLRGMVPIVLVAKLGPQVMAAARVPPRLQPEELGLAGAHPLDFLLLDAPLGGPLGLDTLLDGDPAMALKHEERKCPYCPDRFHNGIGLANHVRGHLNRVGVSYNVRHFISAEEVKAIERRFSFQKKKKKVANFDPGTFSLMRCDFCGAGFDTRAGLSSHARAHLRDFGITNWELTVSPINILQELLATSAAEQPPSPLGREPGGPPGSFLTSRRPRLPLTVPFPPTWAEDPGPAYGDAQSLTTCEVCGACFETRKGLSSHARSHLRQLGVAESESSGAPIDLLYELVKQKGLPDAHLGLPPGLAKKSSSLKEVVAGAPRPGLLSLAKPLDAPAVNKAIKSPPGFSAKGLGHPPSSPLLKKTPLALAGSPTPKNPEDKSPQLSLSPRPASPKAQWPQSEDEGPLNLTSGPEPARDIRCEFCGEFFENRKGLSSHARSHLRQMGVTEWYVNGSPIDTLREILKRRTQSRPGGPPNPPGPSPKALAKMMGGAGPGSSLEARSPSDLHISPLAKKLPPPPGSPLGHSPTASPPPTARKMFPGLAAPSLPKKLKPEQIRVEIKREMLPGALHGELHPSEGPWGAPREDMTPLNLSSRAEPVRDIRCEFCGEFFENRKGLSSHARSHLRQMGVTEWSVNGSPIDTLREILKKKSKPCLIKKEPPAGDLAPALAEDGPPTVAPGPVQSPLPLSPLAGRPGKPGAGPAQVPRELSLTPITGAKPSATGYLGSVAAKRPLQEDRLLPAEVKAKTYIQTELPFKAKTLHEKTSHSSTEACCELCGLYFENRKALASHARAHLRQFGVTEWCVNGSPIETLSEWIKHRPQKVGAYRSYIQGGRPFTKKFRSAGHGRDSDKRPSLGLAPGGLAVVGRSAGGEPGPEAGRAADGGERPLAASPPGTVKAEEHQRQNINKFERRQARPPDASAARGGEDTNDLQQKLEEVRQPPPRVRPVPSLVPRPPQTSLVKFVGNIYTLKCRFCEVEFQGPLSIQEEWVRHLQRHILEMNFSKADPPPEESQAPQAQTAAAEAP
# T2 sequence (Q96SW2 whole entry): as the sequence (Q96SW2 whole entry) above
# T2 sequence (Q16531 whole entry partner): as the sequence (Q16531 whole entry partner) above
# Outline: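 HiBiT-tagged HUDEP-2 cells at 1.0×10^6 cells/ml in SFEM II with SCF, EPO, dexamethasone and doxycycline, treated 24 h at 37 °C with a 10-point series ([…]). Luminescence after HiBiT lytic detection, normalized to DMSO; EC50 and Y-min from fitted curves.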
Structure (SMILES),DC50 [1] [nM],HBF AUC [2],DC50 [3] [nM]
"CCO[C@H]1CC[C@H](c2cc3c(cc2Nc2cccc4c2C(=O)N([C@@H]2CCC(=O)NC2=O)C4=O)N(C)C(=O)[C@@H](C)O3)CC1 [Compound 54, 2-((R)-2,6-dioxopiperidin-3-yl)-4-(((R)-7-((1r,4R)-4-ethoxycyclohexyl)-2,4-dimethyl-3-oxo-3,4-dihydro-2H-benzo[b][1,4]oxazin-6-yl)amino)isoindoline-1,3-dione]",14,++ (++ = 100 ≤ AUC < 150),8
"CCO[C@H]1CC[C@H](c2cc3c(cc2Nc2cccc4c2C(=O)N([C@@H]2CCC(=O)NC2=O)C4=O)N(C)C(=O)[C@H](C)O3)CC1 [Compound 55, 2-((R)-2,6-dioxopiperidin-3-yl)-4-(((S)-7-((1r,4S)-4-ethoxycyclohexyl)-2,4-dimethyl-3-oxo-3,4-dihydro-2H-benzo[b][1,4]oxazin-6-yl)amino)isoindoline-1,3-dione]",9,++ (++ = 100 ≤ AUC < 150),6
"CCN1C(=O)COc2cc(-c3cc(C)nc(C)c3)c(Nc3cccc4c3C(=O)N(C3CCC(=O)NC3=O)C4=O)cc21 (stereo not drawn) [Compound 56, 4-((7-(2,6-dimethylpyridin-4-yl)-4-ethyl-3-oxo-3,4-dihydro-2H-benzo[b][1,4]oxazin-6-yl)amino)-2-(2,6-dioxopiperidin-3-yl)isoindoline-1,3-dione]",43,++ (++ = 100 ≤ AUC < 150),20
"Cc1cc(-c2cc3c(cc2Nc2cccc4c2C(=O)N(C2CCC(=O)NC2=O)C4=O)N(C)C(=O)CO3)cc(C2CC2)n1 (stereo not drawn) [Compound 57, 4-((7-(2-cyclopropyl-6-methylpyridin-4-yl)-4-methyl-3-oxo-3,4-dihydro-2H-benzo[b][1,4]oxazin-6-yl)amino)-2-(2,6-dioxopiperidin-3-yl)isoindoline-1,3-dione]",54,+++ (+++ = AUC ≥ 150),18
"Cc1cc(-c2cc3c(cc2Nc2cccc4c2C(=O)N([C@@H]2CCC(=O)NC2=O)C4=O)N(C)C(=O)CO3)c(F)cn1 [Compound 58, (R)-2-(2,6-dioxopiperidin-3-yl)-4-((7-(5-fluoro-2-methylpyridin-4-yl)-4-methyl-3-oxo-3,4-dihydro-2H-benzo[b][1,4]oxazin-6-yl)amino)isoindoline-1,3-dione]",10,++ (++ = 100 ≤ AUC < 150),9
"Cc1cc(-c2cc3c(cc2Nc2cccc4c2C(=O)N([C@@H]2CCC(=O)NC2=O)C4=O)N(C)C(=O)CO3)ccn1 [Compound 59, (R)-2-(2,6-dioxopiperidin-3-yl)-4-((4-methyl-7-(2-methylpyridin-4-yl)-3-oxo-3,4-dihydro-2H-benzo[b][1,4]oxazin-6-yl)amino)isoindoline-1,3-dione]",10,+++ (+++ = AUC ≥ 150),8
"CNc1cc(-c2cc3c(cc2Nc2cccc4c2C(=O)N(C2CCC(=O)NC2=O)C4=O)N(C)C(=O)CO3)c(F)cn1 (stereo not drawn) [Compound 60, 2-(2,6-dioxopiperidin-3-yl)-4-((7-(5-fluoro-2-(methylamino)pyridin-4-yl)-4-methyl-3-oxo-3,4-dihydro-2H-benzo[b][1,4]oxazin-6-yl)amino)isoindoline-1,3-dione]",11,+++ (+++ = AUC ≥ 150),9
"Cc1cc(-c2cc3c(cc2Nc2cccc4c2C(=O)N([C@H]2CCC(=O)NC2=O)C4=O)N(C)C(=O)CO3)c(F)cn1 [Compound 61, (S)-2-(2,6-dioxopiperidin-3-yl)-4-((7-(5-fluoro-2-methylpyridin-4-yl)-4-methyl-3-oxo-3,4-dihydro-2H-benzo[b][1,4]oxazin-6-yl)amino)isoindoline-1,3-dione]",11,++ (++ = 100 ≤ AUC < 150),7
"Cc1cc(-c2cc3c(cc2Nc2cccc4c2C(=O)N(C2CCC(=O)NC2=O)C4=O)N(C)C(=O)OC3)cc(C)n1 (stereo not drawn) [Compound 62, 4-((6-(2,6-dimethylpyridin-4-yl)-1-methyl-2-oxo-1,4-dihydro-2H-benzo[d][1,3]oxazin-7-yl)amino)-2-(2,6-dioxopiperidin-3-yl)isoindoline-1,3-dione]",19,++ (++ = 100 ≤ AUC < 150),17
"CC(=O)N1CCCC(c2cc3c(cc2Nc2cccc4c2C(=O)N([C@H]2CCC(=O)NC2=O)C4=O)N(C)C(=O)CO3)C1 (stereo partly drawn) [Compound 63, 4-((7-(1-acetylpiperidin-3-yl)-4-methyl-3-oxo-3,4-dihydro-2H-benzo[b][1,4]oxazin-6-yl)amino)-2-((S)-2,6-dioxopiperidin-3-yl)isoindoline-1,3-dione]",14,++ (++ = 100 ≤ AUC < 150),16
"CCOc1nccc(-c2cc3c(cc2Nc2cccc4c2C(=O)N(C2CCC(=O)NC2=O)C4=O)N(C)C(=O)CO3)c1C (stereo not drawn) [Compound 64, 2-(2,6-dioxopiperidin-3-yl)-4-((7-(2-ethoxy-3-methylpyridin-4-yl)-4-methyl-3-oxo-3,4-dihydro-2H-benzo[b][1,4]oxazin-6-yl)amino)isoindoline-1,3-dione]",53,++ (++ = 100 ≤ AUC < 150),12
"COc1nccc(-c2cc3oc(=O)n(C)c3cc2Nc2cccc3c2C(=O)N(C2CCC(=O)NC2=O)C3=O)c1F (stereo not drawn) [Compound 65, 2-(2,6-dioxopiperidin-3-yl)-4-((6-(3-fluoro-2-methoxypyridin-4-yl)-3-methyl-2-oxo-2,3-dihydrobenzo[d]oxazol-5-yl)amino)isoindoline-1,3-dione]",96,+ (+ = 15 ≤ AUC < 100),41
"CNc1cc(-c2cc3c(cc2Nc2cccc4c2C(=O)N(C2CCC(=O)NC2=O)C4=O)N(C)C(=O)CO3)cc(C)n1 (stereo not drawn) [Compound 66, 2-(2,6-dioxopiperidin-3-yl)-4-((4-methyl-7-(2-methyl-6-(methylamino)pyridin-4-yl)-3-oxo-3,4-dihydro-2H-benzo[b][1,4]oxazin-6-yl)amino)isoindoline-1,3-dione]",188,++ (++ = 100 ≤ AUC < 150),15
"Cc1cc(-c2c(Nc3cccc4c3C(=O)N([C@H]3CCC(=O)NC3=O)C4=O)cc3c(c2F)OCC(=O)N3C)c(F)cn1 [Compound 67, 2-((S)-2,6-dioxopiperidin-3-yl)-4-((8-fluoro-7-(5-fluoro-2-methylpyridin-4-yl)-4-methyl-3-oxo-3,4-dihydro-2H-benzo[b][1,4]oxazin-6-yl)amino)isoindoline-1,3-dione]",25,++ (++ = 100 ≤ AUC < 150),17
"CN1C(=O)COc2cc([C@H]3CC[C@H](C#N)CC3)c(Nc3cccc4c3C(=O)N([C@H]3CCC(=O)NC3=O)C4=O)cc21 [Compound 68, (1S,4r)-4-(6-((2-((S)-2,6-dioxopiperidin-3-yl)-1,3-dioxoisoindolin-4-yl)amino)-4-methyl-3-oxo-3,4-dihydro-2H-benzo[b][1,4]oxazin-7-yl)cyclohexane-1-carbonitrile]",6,+++ (+++ = AUC ≥ 150),3
"Cc1cncc(-c2c(Nc3cccc4c3C(=O)N([C@H]3CCC(=O)NC3=O)C4=O)cc3c(c2F)OCC(=O)N3C)c1 [Compound 69, (S)-2-(2,6-dioxopiperidin-3-yl)-4-((8-fluoro-4-methyl-7-(5-methylpyridin-3-yl)-3-oxo-3,4-dihydro-2H-benzo[b][1,4]oxazin-6-yl)amino)isoindoline-1,3-dione]",54,+ (+ = 15 ≤ AUC < 100),20
"Cc1cc(-c2cc3c(cc2Nc2cccc4c2C(=O)N([C@H]2CCC(=O)NC2=O)C4=O)N(C)C(=O)OC3C)ccn1 (stereo partly drawn) [Compound 70, 4-((1,4-dimethyl-6-(2-methylpyridin-4-yl)-2-oxo-1,4-dihydro-2H-benzo[d][1,3]oxazin-7-yl)amino)-2-((S)-2,6-dioxopiperidin-3-yl)isoindoline-1,3-dione]",15,++ (++ = 100 ≤ AUC < 150),19
"COc1ccc(-c2cc3c(cc2Nc2cccc4c2C(=O)N([C@H]2CCC(=O)NC2=O)C4=O)N(C)C(=O)O[C@H]3C)cc1F [Compound 71, 2-((S)-2,6-dioxopiperidin-3-yl)-4-(((S)-6-(3-fluoro-4-methoxyphenyl)-1,4-dimethyl-2-oxo-1,4-dihydro-2H-benzo[d][1,3]oxazin-7-yl)amino)isoindoline-1,3-dione]",10,++ (++ = 100 ≤ AUC < 150),16
"Cc1cc(-c2cc3c(cc2Nc2cccc4c2C(=O)N([C@H]2CCC(=O)NC2=O)C4=O)N(C)C(=O)OC3C)cc(C)n1 (stereo partly drawn) [Compound 72, 4-((6-(2,6-dimethylpyridin-4-yl)-1,4-dimethyl-2-oxo-1,4-dihydro-2H-benzo[d][1,3]oxazin-7-yl)amino)-2-((S)-2,6-dioxopiperidin-3-yl)isoindoline-1,3-dione]",21,+++ (+++ = AUC ≥ 150),14
